Reference: patent US20230322846A9, “NEUROACTIVE STEROIDS AND THEIR METHODS OF USE” (SAGE THERAPEUTICS, INC., priority 2018, published 2023)

Key:
[1] = biological target: human GABAA receptors composed of the α1β2γ2 subunits (Homo sapiens (Human), UniProt P14867+P18507+P47870); experiment: α1β2γ2 SyncroPatch automated patch clamp assay; assay type: cell-based; conditions: for EC50: HEK cells, potentiation of submaximal GABA current, clamped at −120 mV; for α1β2γ2 EMAX: peak current after GABA+compound divided by peak current after GABA alone
Sequence of human GABAA receptors composed of the α1β2γ2 subunits (P14867 28-456 limits assumed): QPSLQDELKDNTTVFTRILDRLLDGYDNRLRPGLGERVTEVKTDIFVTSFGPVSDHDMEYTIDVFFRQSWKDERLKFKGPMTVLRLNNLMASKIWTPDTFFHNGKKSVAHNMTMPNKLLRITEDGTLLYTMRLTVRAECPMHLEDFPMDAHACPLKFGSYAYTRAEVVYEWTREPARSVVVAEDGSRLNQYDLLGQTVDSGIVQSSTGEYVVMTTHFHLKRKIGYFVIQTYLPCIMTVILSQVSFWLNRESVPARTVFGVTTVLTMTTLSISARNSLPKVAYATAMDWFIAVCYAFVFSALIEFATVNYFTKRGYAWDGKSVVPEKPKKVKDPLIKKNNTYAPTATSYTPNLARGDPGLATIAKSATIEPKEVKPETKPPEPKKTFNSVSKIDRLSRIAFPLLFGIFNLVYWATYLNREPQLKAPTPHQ
Sequence of human GABAA receptors composed of the α1β2γ2 subunits (P47870 25-512 limits assumed): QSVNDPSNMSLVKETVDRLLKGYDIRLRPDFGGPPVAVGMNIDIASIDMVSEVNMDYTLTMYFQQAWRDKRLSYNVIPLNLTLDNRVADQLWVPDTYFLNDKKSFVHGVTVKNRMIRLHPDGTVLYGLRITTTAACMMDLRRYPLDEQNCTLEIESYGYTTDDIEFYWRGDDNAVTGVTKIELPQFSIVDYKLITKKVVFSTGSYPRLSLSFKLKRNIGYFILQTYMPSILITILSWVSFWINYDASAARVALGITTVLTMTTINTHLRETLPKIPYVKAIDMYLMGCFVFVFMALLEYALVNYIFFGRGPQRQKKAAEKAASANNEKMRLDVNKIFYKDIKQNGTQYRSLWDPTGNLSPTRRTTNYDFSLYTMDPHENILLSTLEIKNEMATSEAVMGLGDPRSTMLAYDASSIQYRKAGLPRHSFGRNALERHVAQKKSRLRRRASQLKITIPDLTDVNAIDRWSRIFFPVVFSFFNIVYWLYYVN
Sequence of human GABAA receptors composed of the α1β2γ2 subunits (P18507 40-475 limits assumed): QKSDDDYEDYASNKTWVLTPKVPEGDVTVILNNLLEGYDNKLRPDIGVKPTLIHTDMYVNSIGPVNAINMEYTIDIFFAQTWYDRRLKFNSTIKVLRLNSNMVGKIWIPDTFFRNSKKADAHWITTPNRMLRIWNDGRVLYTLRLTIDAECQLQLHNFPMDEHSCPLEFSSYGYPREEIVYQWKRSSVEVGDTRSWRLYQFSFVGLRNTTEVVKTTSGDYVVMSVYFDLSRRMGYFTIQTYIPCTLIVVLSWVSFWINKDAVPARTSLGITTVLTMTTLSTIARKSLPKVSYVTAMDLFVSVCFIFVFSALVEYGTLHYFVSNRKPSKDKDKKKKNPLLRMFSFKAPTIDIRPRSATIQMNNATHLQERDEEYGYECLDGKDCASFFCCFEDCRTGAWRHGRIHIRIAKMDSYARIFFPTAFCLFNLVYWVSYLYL
Method: (§1) The SyncroPatch 384PE (Nanion, Germany) automated patch clamp platform was used to obtain recordings from human embryonic kidney cells stably expressing human GABAA receptors composed of the α1β2γ2 and α4β3δ subunits. Cells were bathed in an extracellular solution containing: 140 mM NaCl, 4 mM KCl, 2 mM CaCl2), 1 mM MgCl2, 10 mM HEPES, 5 mM glucose and 0.1% DMSO. Solution was maintained at pH 7.4 with NaOH and 300 mOsm/L. Chips with multi-hole (4×) medium resistance (2-3M) are used for the recombinant cell line experiments. Once harvested, cells are stored in extracellular solution set to 10° C. in the cell hotel with a minimum shaking speed of 200 rpm before addition to the chip at the beginning of each experiment. Whole cell patch clamp recordings were made using an intracellular solution containing: 90 mM KCl, 50 mM KF, 1.5 mM MgCl2, 11.1 mM EGTA and 10 mM HEPES, 2 mM NaATP, maintained at pH 7.2 with KOH. Currents are leak corrected (using P/2 leak correction protocol) and sampled at 5 kHz. Cells were clamped at −120 mV. After establishing a stable baseline, a submaximal concentration of GABA (3-5 μM for cells expressing α1β2γ2 and 10 μM for cells expressing […]) was applied at a rate of 10 μl/second, immediately followed by application of GABA+compound (10 μl/second) at a single concentration of compound per cell. Compounds were tested at six concentrations (0.029, 0.12, 0.47, 1.88, 7.5, and 30 μM) in n=8-12 cells per concentration. Compound effect was determined by dividing peak current amplitude after GABA+compound by peak current amplitude after GABA alone. EC50 and Emax values were determined from average values for each concentration.

[2] = biological target: human GABAA receptors composed of the α4β3δ subunits (Homo sapiens (Human), UniProt O14764+P28472+P48169); experiment: α4β3δ SyncroPatch automated patch clamp assay; assay type: cell-based; conditions: for EC50: HEK cells, potentiation of submaximal GABA current, clamped at −120 mV; for α4β3δ EMAX: peak current after GABA+compound divided by peak current after GABA alone
Sequence of human GABAA receptors composed of the α4β3δ subunits (P48169 36-554 limits assumed): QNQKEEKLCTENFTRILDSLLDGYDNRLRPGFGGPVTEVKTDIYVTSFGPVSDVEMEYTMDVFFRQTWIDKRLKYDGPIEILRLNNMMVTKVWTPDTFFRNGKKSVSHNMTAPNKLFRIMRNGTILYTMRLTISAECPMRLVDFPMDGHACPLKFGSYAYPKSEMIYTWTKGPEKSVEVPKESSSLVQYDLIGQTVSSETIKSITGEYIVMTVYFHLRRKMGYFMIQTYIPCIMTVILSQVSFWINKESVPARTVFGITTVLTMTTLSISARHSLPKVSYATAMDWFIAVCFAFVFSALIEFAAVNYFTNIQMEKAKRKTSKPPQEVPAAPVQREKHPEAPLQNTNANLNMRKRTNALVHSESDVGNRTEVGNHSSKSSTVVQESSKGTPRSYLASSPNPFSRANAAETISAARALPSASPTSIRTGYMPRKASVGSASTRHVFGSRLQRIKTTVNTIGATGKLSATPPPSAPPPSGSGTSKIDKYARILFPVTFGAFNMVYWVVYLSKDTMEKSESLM
Sequence of human GABAA receptors composed of the α4β3δ subunits (P28472 26-473 limits assumed): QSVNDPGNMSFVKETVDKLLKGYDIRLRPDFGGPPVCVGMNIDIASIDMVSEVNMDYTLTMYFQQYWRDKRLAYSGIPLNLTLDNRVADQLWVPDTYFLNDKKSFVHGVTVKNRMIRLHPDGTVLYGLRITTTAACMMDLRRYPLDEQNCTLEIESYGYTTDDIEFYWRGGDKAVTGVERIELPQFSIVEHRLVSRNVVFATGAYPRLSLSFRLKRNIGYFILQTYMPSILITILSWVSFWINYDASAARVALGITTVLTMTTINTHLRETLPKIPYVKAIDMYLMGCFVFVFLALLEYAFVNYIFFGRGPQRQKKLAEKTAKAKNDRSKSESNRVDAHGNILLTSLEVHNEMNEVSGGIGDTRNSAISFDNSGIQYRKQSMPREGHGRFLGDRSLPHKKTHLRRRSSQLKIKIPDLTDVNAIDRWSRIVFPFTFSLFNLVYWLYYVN
Sequence of human GABAA receptors composed of the α4β3δ subunits (O14764 17-452 limits assumed): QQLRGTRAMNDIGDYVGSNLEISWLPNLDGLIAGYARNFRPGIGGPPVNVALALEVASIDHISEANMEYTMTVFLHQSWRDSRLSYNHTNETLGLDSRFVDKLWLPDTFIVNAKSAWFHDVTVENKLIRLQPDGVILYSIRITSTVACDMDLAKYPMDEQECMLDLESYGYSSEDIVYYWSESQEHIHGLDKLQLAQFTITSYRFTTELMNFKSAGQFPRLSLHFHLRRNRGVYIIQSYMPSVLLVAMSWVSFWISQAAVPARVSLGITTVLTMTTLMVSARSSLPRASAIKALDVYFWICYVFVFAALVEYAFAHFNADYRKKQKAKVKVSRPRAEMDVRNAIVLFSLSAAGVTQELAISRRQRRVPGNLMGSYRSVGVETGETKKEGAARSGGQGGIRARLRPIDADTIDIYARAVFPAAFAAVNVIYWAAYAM
Method: as §1

[3] = biological target: [35S]-TBPS binding, rat brain cortical membranes; experiment: Steroid inhibition of [35S]-TBPS binding; conditions: 3 nM [35S]-TBPS, in the presence of 5 mM GABA
Outline: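 In the presence of […], compounds (DMSO 0.5% final) competed with 3 nM [35S]-TBPS for Sprague-Dawley rat cortical membranes, pH 7.4 phosphate buffer, 90 min, room temperature. Filtration and scintillation counting; specific binding defined by […]; IC50 and maximal inhibition fitted per experiment, averaged as mean ± SEM.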

Structure (SMILES)	EC50 [1]	α1β2γ2 EMAX [1]	EC50 [2]	α4β3δ EMAX [2]	IC50 [3]
CCC[C@@]1(O)CC[C@H]2[C@@H](CC[C@@H]3[C@@H]2CC[C@]2(C)[C@@H]([C@@H](C)Cn4nnnc4C)CC[C@@H]32)C1 [Example 332, (3R,5S,8R,9R,10S,13S,14S,17R)-13-methyl-17-((R)-1-(5-methyl-1H-tetrazol-1-yl)propan-2-yl)-3-propylhexadecahydro-1H-cyclopenta[a]phenanthren-3-ol]	< 200 nM	A (A indicates an Emax response <8)	200 to 1000 nM	A (A indicates an Emax response <30)	100 to 1000 nM
C[C@@H](Cn1cc(C#N)cn1)[C@H]1CC[C@H]2[C@@H]3CC[C@@H]4C[C@@](O)(C5CC5)CC[C@@H]4[C@H]3CC[C@]12C [Example 341, 1-((R)-2-((3R,5R,8R,9R,10S,13S,14S,17R)-3-cyclopropyl-3-hydroxy-13-methylhexadecahydro-1H-cyclopenta[a]phenanthren-17-yl)propyl)-1H-pyrazole-4-carbonitrile]	< 200 nM	A (A indicates an Emax response <8)	< 200 nM	A (A indicates an Emax response <30)	< 100 nM
CCOC[C@@]1(O)CC[C@H]2[C@H](CC[C@@H]3[C@@H]2CC[C@]2(C)[C@@H]([C@H](Cn4cc(C#N)cn4)C(F)(F)F)CC[C@@H]32)C1 [Example 357, 1-((R)-2-((3R,5R,8R,9R,10S,13S,14S,17R)-3-(ethoxymethyl)-3-hydroxy-13-methylhexadecahydro-1H-cyclopenta[a]phenanthren-17-yl)-3,3,3-trifluoropropyl)-1H-pyrazole-4-carbonitrile]	200 to 1000 nM	B (B indicates an Emax response 8 to <10)	200 to 1000 nM	B (B indicates an Emax response 30 to <45)	100 to 1000 nM
CCOC[C@@]1(O)CC[C@H]2[C@H](CC[C@@H]3[C@@H]2CC[C@]2(C)[C@@H]([C@H](Cn4nnc(C)n4)C(F)(F)F)CC[C@@H]32)C1 [Example 358, (3R,5R,8R,9R,10S,13S,14S,17R)-3-(ethoxymethyl)-13-methyl-17-((R)-1,1,1-trifluoro-3-(5-methyl-2H-tetrazol-2-yl)propan-2-yl)hexadecahydro-1H-cyclopenta[a]phenanthren-3-ol]	≥ 1000 nM	A (A indicates an Emax response <8)	≥ 1000 nM	B (B indicates an Emax response 30 to <45)	100 to 1000 nM
CCC[C@@]1(O)CC[C@H]2[C@H](CC[C@@H]3[C@@H]2CC[C@]2(C)[C@@H]([C@@H](C)Cc4ccc(C#N)nc4)CC[C@@H]32)C1 [Example 401, 5-((S)-2-((3R,5R,8R,9R,10S,13R,14S,17R)-3-hydroxy-13-methyl-3-propylhexadecahydro-1H-cyclopenta[a]phenanthren-17-yl)propyl)picolinonitrile]	≥ 1000 nM	C (C indicates an Emax response ≥10)	≥ 1000 nM	A (A indicates an Emax response <30)	< 100 nM
COC[C@@]1(O)CC[C@H]2[C@H](CC[C@@H]3[C@@H]2CC[C@]2(C)[C@@H]([C@H](C)Cc4ccc(C#N)nc4)CC[C@@H]32)C1 [Example 405, 5-((R)-2-((3R,5R,8R,9R,10S,13R,14S,17R)-3-hydroxy-3-(methoxymethyl)-13-methylhexadecahydro-1H-cyclopenta[a]phenanthren-17-yl)propyl)picolinonitrile]	≥ 1000 nM	C (C indicates an Emax response ≥10)	< 200 nM	B (B indicates an Emax response 30 to <45)	< 100 nM
C[C@H](Cc1cncc(C#N)c1)[C@H]1CC[C@H]2[C@@H]3CC[C@@H]4C[C@](C)(O)CC[C@@H]4[C@H]3CC[C@]12C [Example 406, 5-((R)-2-((3R,5R,8R,9R,10S,13R,14S,17R)-3-hydroxy-3,13-dimethylhexadecahydro-1H-cyclopenta[a]phenanthren-17-yl)propyl)nicotinonitrile]	< 200 nM	A (A indicates an Emax response <8)	< 200 nM	B (B indicates an Emax response 30 to <45)	< 100 nM
C[C@@H](Cc1cncc(C#N)c1)[C@H]1CC[C@H]2[C@@H]3CC[C@@H]4C[C@](C)(O)CC[C@@H]4[C@H]3CC[C@]12C [Example 407, 5-((S)-2-((3R,5R,8R,9R,10S,13R,14S,17R)-3-hydroxy-3,13-dimethylhexadecahydro-1H-cyclopenta[a]phenanthren-17-yl)propyl)nicotinonitrile]	< 200 nM	C (C indicates an Emax response ≥10)	≥ 1000 nM	C (C indicates an Emax response ≥45)	< 100 nM
CCOC[C@@]1(O)CC[C@H]2[C@H](CC[C@@H]3[C@@H]2CC[C@]2(C)[C@@H]([C@@H](C)Cc4cccc(C#N)n4)CC[C@@H]32)C1 [Example 413]	< 200 nM	C (C indicates an Emax response ≥10)	< 200 nM	B (B indicates an Emax response 30 to <45)	< 100 nM
Cc1cnc(C[C@H](C)[C@H]2CC[C@H]3[C@@H]4CC[C@@H]5C[C@](C)(O)CC[C@@H]5[C@H]4CC[C@]23C)s1 [Example 430]	200 to 1000 nM	B (B indicates an Emax response 8 to <10)	< 200 nM	A (A indicates an Emax response <30)	100 to 1000 nM
C[C@H](Cc1nccc(C#N)n1)[C@H]1CC[C@H]2[C@@H]3CC[C@@H]4C[C@](C)(O)CC[C@@H]4[C@H]3CC[C@]12C [Example 436]	200 to 1000 nM	A (A indicates an Emax response <8)	≥ 1000 nM	B (B indicates an Emax response 30 to <45)	100 to 1000 nM
Cc1cnc(C[C@@H](C)[C@H]2CC[C@H]3[C@@H]4CC[C@@H]5C[C@](C)(O)CC[C@@H]5[C@H]4CC[C@]23C)nc1 [Example 438]	200 to 1000 nM	A (A indicates an Emax response <8)	≥ 1000 nM	B (B indicates an Emax response 30 to <45)	100 to 1000 nM
Cc1cnc(C[C@H](C)[C@H]2CC[C@H]3[C@@H]4CC[C@@H]5C[C@](C)(O)CC[C@@H]5[C@H]4CC[C@]23C)cn1 [Example 439]	< 200 nM	C (C indicates an Emax response ≥10)	< 200 nM	C (C indicates an Emax response ≥45)	< 100 nM
C[C@@H](Cc1ccc(C(F)(F)F)nc1)[C@H]1CC[C@H]2[C@@H]3CC[C@@H]4C[C@](C)(O)CC[C@@H]4[C@H]3CC[C@]12C [Example 443]	< 200 nM	C (C indicates an Emax response ≥10)	< 200 nM	B (B indicates an Emax response 30 to <45)	< 100 nM
C[C@@H](Cc1nc(C(F)(F)F)cs1)[C@H]1CC[C@H]2[C@@H]3CC[C@@H]4C[C@](C)(O)CC[C@]4(C)[C@H]3CC[C@]12C [Example 453]	200 to 1000 nM	A (A indicates an Emax response <8)	< 200 nM	A (A indicates an Emax response <30)	< 100 nM
CCOC[C@@]1(O)CC[C@H]2[C@H](CC[C@@H]3[C@@H]2CC[C@]2(C)[C@@H]([C@H](CC)Cn4ccc(C#N)n4)CC[C@@H]32)C1 [Example 499, 1-((S)-2-((3R,5R,8R,9R,10S,13S,14S,17R)-3-(ethoxymethyl)-3-hydroxy-13-methylhexadecahydro-1H-cyclopenta[a]phenanthren-17-yl)butyl)-1H-pyrazole-3-carbonitrile]	< 200 nM	A (A indicates an Emax response <8)	< 200 nM	A (A indicates an Emax response <30)	< 100 nM
